Experimental findings from patent US20120107323A1, “KINASE PROTEIN BINDING INHIBITORS” (University of Florida, priority 2009, published 2012) are described below.

Structures are written as SMILES.

Assay [1] has as its system melanoma tumor. As to the kind of experiment: Melanoma tumor in nude mice, 5 days of treatment. It is filed as in vivo. Conditions: 15 mg/kg intraperitoneal for 5 days, p<0.05.
In assay [2] the test system is insulin receptor, VEGFR-1, AKT-1, EGFR, VEGFR-2, c-MET, PDGFRa, p70S6K, Src and PI3Kinase. As to the kind of experiment: Kinase profiler screening, other protein kinases. The class given is biochemical. Conditions: 1 μM compound. As for the experimental part: Kinase Profiler Screening: Kinase specificity screening was performed with Invitrogen's SelectScreen® Kinase Profiling Services http://www.invitrogen.com/site/us/en/home/Products-and-Services/Services/Discoverv-Research/SelectScreen-Profiling-Service/SelectScreen-Kinase-Profiling-Service.html. The screening was performed with 1 μM compound, INT2-31, 10 μM ATP, and kinase substrates against ten recombinant kinases according to Z′-LYTET™ Kinase Assay. For PI3 kinase activity, 100 μM ATP, and kinase substrate were utilized with the Invitrogen Adapta® Universal Kinase Assay protocol. Tumor Growth in Nude Mice in vivo: Six week old athymic, female nude mice were purchased from Harlan Laboratory. The mice were maintained in the animal facility, and all experiments were performed in compliance with NIH animal-use guidelines and under an IACUC approved protocol. Melanoma cells were injected, 5×10^6 cells, subcutaneously. When the tumor size reached 100 mm^3, the INT2-31 was introduced by intraperitoneal injection at a dose of 15 mg/kg daily for 21 days. Tumor diameters were measured with calipers, and tumor volume in mm^3 was calculated using the formula [(width)^2×length]/2. At the end of experiment, tumor weight and volume were determined.

In assay [3] the target is T1, FAK and IGF-1R (Homo sapiens, UniProt Q05397).
T1 construct: endogenous in cells; host or cells: C8161 (A2) and A375 (A3) melanoma cells
As to the kind of experiment: Coimmunoprecipitation of FAK and IGF-1R in C8161 melanoma cells. The class given is cell-based. Particulars: average IC50, C8161 cells, immunoprecipitation with antibody against FAK; read-out: IC50, disruption of FAK/IGF-1R binding. From the text: Computational Docking The crystal structures of the N-terminal domain of FAK (PDB code 2AL6) (22) and the kinase domain of IGF-1R(PDB 1P40A) (23) were utilized for in silico molecular modeling of their interaction as previously described. The three-dimensional coordinates of compound NSC344553 (INT2-31), obtained from the database of the National Cancer Institute, Developmental Therapeutics Program (NCI/DTP), were docked onto the predicted interface of the amino-terminus of FAK (amino acids 127-243) with the intracytoplasmic portion of IGF-1R (21). […] 100 orientations were created for NSC344553 in the target site and were scored using the computer program grid-based scoring function. […] The intermolecular energies for all configurations of NSC 344553 in binding to FAK-NT2 were calculated as the sum of electrostatic and van der Waals energies. These energy terms were evaluated as correlation functions, which were computed efficiently with Fast Fourier Transforms. […] Bound proteins were boiled in 6× Laemmli buffer and analyzed by SDS-PAGE and Western blotting. […] The intensity of the bands in the western blots was measured with scion image analysis software program. […]

T1 sequence (Q05397 2-1052 limits assumed): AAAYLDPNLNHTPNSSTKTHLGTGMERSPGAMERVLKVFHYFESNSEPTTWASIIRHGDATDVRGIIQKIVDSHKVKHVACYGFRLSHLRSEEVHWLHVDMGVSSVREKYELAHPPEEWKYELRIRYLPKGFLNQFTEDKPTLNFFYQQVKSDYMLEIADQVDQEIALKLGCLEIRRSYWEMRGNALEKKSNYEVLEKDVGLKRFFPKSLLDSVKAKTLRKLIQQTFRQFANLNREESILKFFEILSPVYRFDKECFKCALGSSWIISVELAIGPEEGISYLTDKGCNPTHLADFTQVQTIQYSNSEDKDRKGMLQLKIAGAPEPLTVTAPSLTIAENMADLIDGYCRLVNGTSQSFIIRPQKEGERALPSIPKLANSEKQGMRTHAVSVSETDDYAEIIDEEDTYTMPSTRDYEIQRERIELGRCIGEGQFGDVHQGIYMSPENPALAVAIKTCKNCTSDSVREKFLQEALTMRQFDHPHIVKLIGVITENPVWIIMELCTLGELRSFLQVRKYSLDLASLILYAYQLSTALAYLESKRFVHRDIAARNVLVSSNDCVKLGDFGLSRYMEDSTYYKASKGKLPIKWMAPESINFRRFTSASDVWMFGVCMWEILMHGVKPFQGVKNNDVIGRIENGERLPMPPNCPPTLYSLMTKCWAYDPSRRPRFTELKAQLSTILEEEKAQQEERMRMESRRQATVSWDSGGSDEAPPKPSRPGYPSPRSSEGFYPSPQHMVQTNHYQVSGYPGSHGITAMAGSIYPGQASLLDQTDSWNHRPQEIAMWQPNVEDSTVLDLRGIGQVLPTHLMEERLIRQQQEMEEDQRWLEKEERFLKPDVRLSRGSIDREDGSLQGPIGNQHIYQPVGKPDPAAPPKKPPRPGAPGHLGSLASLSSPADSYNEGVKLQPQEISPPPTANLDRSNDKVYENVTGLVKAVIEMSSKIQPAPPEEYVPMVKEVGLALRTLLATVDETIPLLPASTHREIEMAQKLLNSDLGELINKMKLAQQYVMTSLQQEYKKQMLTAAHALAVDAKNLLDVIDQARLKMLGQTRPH

For the compound `CSc1ncnc2c1ccn2C1O[C@H](COP(=O)(O)O)[C@@H](O)[C@H]1O` (stereo partly drawn) [INT2-31, 4-(Methylthio)-7-(5-O-phosphono-D-ribofuranosyl)-{7H-Pyrrolo[2,3-d]pyrimidine}], the melanoma tumor regression result in assay [1] is recorded as “caused melanoma tumor regression”. In addition, the “inhibition of any of the other protein kinases” value in assay [2] is at most 22%. For the same compound, the IC50 in assay [3] is 2720 nM.
